In patent US11731966B2, “Compounds and their methods of use” (Praxis Precision Medicines, Inc., priority 2017, dated 2023):

Biological target: T1, human NaV1.6 (hNaV1.6) (Homo sapiens, UniProt Q9UQD0)
T1 construct: expressed in transfected cells; host or cells: HEK-293 (G418 selection)
Assay: Modulation of late (persistent) sodium current (INaL), PatchXpress electrophysiology, HEK-293 cells expressing hNaV1.6, ATX-II evoked
Type: cell-based
Details: 1 μM compound; HEK-293 cells expressing recombinant human NaV1.6; late current evoked by 300 nM ATX-II; steady-state inhibition
Experimental: Functional characterization of exemplary compounds to modulate INaL expressed by the NaV16 voltage-gated sodium channel was accomplished using the PatchXpress™ high throughput electrophysiology platform (Molecular Devices, Sunnyvale, Calif.). HEK-293 cells expressing recombinant, human NaV1.6 (hNaV1.6) were grown in DMEM/high-glucose Dulbecco's modified, 10% FBS, 2 mM sodium pyruvate, 10 mM HEPES and 400 μg/mL G418. Cells were grown to 50%-80% confluency prior to harvesting. Trypsinized cells were washed, allowed to recover for 1 hour and then resuspended in extracellular recording solution at a concentration of 1×10^6 cells/ml. The onboard liquid handling facility of the PatchXpress was used for dispensing cells and applying test compounds. NaV late currents were evoked by the application of 300 nM ATX-II. INaL was evoked by depolarizing pulses to 0 mV for 200 ms from a non-inactivating holding potential (e.g., −120 mV) at a frequency of 0.1 Hz. INaL amplitude and stability were determined by analyzing the mean current amplitude over the final 20 ms of the test pulse. Following steady state block with exemplary compounds (e.g., as described herein), a Na^+ free solution containing an impermeant cation (e.g., Choline or NDMG) was added to confirm the identify of the sodium current. Percent steady-state inhibition of INaL was calculated as: [(INaL_compound)/(INaL_control)]*100, where INaL_compound and INaL_control represent INaL recorded in the presence or absence of compound, respectively.
In this table, “A” indicates inhibition of less than 30%; “B” indicates inhibition of between about 30% to about 70%; and “C” indicates inhibition of greater than 70%.

T1 sequence (Q9UQD0 whole entry): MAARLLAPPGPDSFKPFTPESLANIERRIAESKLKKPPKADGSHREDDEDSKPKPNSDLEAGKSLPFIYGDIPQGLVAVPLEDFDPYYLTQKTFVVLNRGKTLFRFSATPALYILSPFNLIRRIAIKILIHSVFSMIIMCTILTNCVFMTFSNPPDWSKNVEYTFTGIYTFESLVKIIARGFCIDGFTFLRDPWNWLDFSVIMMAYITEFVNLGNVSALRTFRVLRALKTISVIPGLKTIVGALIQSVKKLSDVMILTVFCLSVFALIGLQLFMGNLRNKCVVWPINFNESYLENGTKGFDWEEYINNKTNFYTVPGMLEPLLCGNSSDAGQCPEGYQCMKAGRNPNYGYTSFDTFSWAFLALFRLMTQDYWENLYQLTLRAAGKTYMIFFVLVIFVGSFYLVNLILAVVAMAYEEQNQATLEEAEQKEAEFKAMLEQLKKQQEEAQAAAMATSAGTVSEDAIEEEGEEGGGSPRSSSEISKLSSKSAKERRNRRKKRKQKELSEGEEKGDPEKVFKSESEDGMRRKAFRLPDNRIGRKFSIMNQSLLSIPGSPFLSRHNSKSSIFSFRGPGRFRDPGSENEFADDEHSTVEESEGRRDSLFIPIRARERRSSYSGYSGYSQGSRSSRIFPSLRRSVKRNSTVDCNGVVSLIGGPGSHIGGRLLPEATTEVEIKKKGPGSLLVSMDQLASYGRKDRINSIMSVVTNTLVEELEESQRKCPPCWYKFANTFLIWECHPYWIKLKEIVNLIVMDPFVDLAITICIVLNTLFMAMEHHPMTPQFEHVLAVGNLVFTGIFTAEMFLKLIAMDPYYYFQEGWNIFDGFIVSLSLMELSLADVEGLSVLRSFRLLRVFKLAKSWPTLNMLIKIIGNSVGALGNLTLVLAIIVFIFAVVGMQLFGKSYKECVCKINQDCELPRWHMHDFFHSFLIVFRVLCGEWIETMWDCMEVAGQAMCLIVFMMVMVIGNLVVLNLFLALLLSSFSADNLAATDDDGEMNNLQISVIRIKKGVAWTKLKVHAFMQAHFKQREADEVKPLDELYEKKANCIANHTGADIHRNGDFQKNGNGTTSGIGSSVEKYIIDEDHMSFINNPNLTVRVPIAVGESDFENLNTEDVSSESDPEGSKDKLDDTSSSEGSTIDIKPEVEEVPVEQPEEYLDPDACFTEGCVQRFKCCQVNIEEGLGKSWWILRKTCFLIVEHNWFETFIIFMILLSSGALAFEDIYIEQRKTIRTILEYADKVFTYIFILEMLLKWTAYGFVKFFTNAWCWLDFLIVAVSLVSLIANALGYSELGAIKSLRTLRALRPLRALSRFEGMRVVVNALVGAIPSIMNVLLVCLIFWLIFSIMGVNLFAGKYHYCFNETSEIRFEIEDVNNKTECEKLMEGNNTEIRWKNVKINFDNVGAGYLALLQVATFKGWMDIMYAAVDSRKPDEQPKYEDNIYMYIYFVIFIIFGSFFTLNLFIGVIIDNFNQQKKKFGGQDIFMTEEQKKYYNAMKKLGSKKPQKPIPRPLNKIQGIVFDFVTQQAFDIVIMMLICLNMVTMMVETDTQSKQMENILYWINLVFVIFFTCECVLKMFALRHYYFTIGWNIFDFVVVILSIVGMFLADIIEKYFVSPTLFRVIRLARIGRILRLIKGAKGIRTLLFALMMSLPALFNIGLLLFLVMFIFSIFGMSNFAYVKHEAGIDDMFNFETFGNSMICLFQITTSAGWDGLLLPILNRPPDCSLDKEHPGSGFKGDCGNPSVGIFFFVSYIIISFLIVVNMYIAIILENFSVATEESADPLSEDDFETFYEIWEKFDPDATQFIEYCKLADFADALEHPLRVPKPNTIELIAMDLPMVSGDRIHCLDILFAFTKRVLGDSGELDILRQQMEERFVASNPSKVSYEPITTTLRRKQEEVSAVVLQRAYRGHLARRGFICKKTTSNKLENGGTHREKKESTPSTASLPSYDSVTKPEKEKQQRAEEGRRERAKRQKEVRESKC

Structure (SMILES) | INaL hNaV1.6 (1 μM, % inhibition)
Cn1nnc2ccc(-c3ccc(OC(F)(F)F)cc3)cc21 [Compound 8] | B (inhibition of between about 30% to about 70%)
FC(F)(F)Cn1nnc2ccc(-c3ccc(OC4CC(F)(F)C4)nc3)cc21 [Compound 10] | A (inhibition of less than 30%)
COc1cc(OC(F)(F)F)ccc1-c1ccc2nnn(CC(F)(F)F)c2c1 [Compound 11] | A (inhibition of less than 30%)
FC(F)(F)COc1ccc(-c2ccc3nnn(CC(F)(F)F)c3c2)cn1 [Compound 12] | B (inhibition of between about 30% to about 70%)
FC(F)(F)Cn1nnc2ccc(-c3ccc(OC4CC(F)(F)C4)cc3)cc21 [Compound 14] | B (inhibition of between about 30% to about 70%)
Cc1nnc(CCn2nnc3ccc(-c4ccc(OC(F)(F)F)cc4)cc32)o1 [Compound 15] | B (inhibition of between about 30% to about 70%)
COc1cc(OC(F)(F)F)ccc1-c1ccc2nnn(CC(F)(F)F)c2n1 [Compound 17] | C (inhibition of greater than 70%)
COCc1cc(OC(F)(F)F)ccc1-c1ccc2nnn(CC(F)(F)F)c2n1 [Compound 18] | C (inhibition of greater than 70%)
FC(F)(F)Cn1nnc2cnc(-c3ccc(OC(F)(F)F)cc3)cc21 [Compound 20] | A (inhibition of less than 30%)

Same assay, conditions: HEK293; 1 μM compound; HEK-293 cells expressing recombinant human NaV1.6; late current evoked by 300 nM ATX-II; steady-state inhibition

inhibition at 1 µM [%] | Structure (SMILES)
30 to 70 | FC(F)(F)Cn1nnc2ccc(-c3ccc(OC(F)(F)F)cc3)nc21 [Compound 1]
> 70 | FC(F)(F)Cn1nnc2ccc(-c3ccc(OC(F)(F)F)cc3)cc21 [Compound 2]
30 to 70 | COCc1cc(OC(F)(F)F)ccc1-c1ccc2nnn(CC(F)(F)F)c2c1 [Compound 4]
< 30 | FC(F)Cn1nnc2ccc(-c3ccc(OC(F)(F)F)cc3)cc21 [Compound 13]
< 30 | FC(F)(F)Cn1nnc2cnc(-c3ccc(OC(F)(F)F)cc3)nc21 [Compound 19]
< 30 | FC(F)(F)Cn1nnc2ncc(-c3ccc(OC(F)(F)F)cc3)cc21 [Compound 21]

The next lines start with the compound.

Structure (SMILES) | inhibition at 1 µM [%]
N#CC1(c2ccc(-c3ccc4nnn(CC(F)(F)F)c4c3)cc2)CC1 [Compound 5] | < 30
CCn1nnc2ccc(-c3ccc(OC(F)(F)F)cc3)cc21 [Compound 6] | 30 to 70
FC(F)(F)Oc1ccc(-c2ccc3nn[nH]c3c2)cc1 [Compound 7] | < 30
Cc1nnc(CCn2nnc3ccc(-c4ccc(OC(F)(F)F)cc4)nc32)o1 [Compound 9] | 30 to 70
COCCn1nnc2ccc(-c3ccc(OC(F)(F)F)cc3)cc21 [Compound 16] | 30 to 70
